In patent US20240415819A1, “MACROCYCLIC COMPOUNDS AS PROTEASOME SUBUNIT BETA TYPE-5 INHIBITORS” (Lead Discovery Center GmbH, priority 2021, published 2024) one finds IC50 data, which are given here for 13 compounds.

Assay [1] addresses T1, β5 subunit of the human constitutive proteasome (CPS) (Homo sapiens, UniProt P28074).
T1 construct: purchased Boston Biochem E-360
Description: β5 inhibition assay, human constitutive proteasome (Suc-LLVY-AMC). Particulars: IC50 class, Suc-LLVY-AMC substrate. The assay is classed as biochemical. The protocol:
The enzymatic activity of the β5 subunit of the human constitutive proteasome (CPS) is analyzed. In another assay, which differs from the assay of the human constitutive proteasome only in using the human immunoproteasome (IPS) the enzymatic activity of the β5 subunit of the human immunoproteasome (IPS) is analyzed. […] Inhibition is indicated as IC50 [nM] (“-”=not measured).

For assay [2], the target named is T2, β5 subunit of the human immunoproteasome (IPS) (Homo sapiens, UniProt P28062).
T2 construct: purchased Boston Biochem E-370
Description: β5 inhibition assay, human immunoproteasome (Suc-LLVY-AMC). Conditions: IC50 class, Suc-LLVY-AMC substrate. The assay is classed as biochemical. Put shortly:
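Human immunoproteasome (1 nM final) was preincubated 10 min at RT with compound in 100 mM HEPES pH 7.5, 50 mM NaCl, 0.02% SDS, 1 mM DTT. Suc-LLVY-AMC (22.6 μM final) was then added for 4 h at RT in the dark. After stopping with 1 μM bortezomib, AMC fluorescence was read (ex 355/em 460 nm).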

For assay [3], the system named is A549 (human lung carcinoma cell line). Description: Glo assay of A549 cells (Table 3; ProteasomeGlo plating scheme). Type of assay: cell-based. Particulars: Homo sapiens; A549 cells; read-out: PGLo A549. Put shortly:
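Cells plated in 384 wells; compound, DMSO, staurosporine transferred by ECHO; 105 min, 37° C., 5% CO2; Proteasome-Glo (Suc-LLVY-Glo) reagent added; dark 10-15 min; luminescence; IC50 nM.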

For assay [4], the system named is Hs 746T (human gastric carcinoma cell line). Briefly: 48 hr CTG viability assay, Hs 746T. Type of assay: cell-based. Particulars: Hs746T, 48 hr CTG, read-out: Hs 746T IC50. Put shortly:
(§1)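 Growth inhibition by compound over 48 h; IC50 (nM) derived from duplicate CellTiter-Glo luminescence readings across 0.0015–10 uM.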

Assay [5] concerns MM1 S (B lymphoblast cell line). Description: 48 hr CTG viability assay, MM1S. Particulars: Homo sapiens, 48 hr CTG, read-out: MM1S IC50. The assay is classed as cell-based. Put shortly:
as §1

The test system of assay [6] is RPMI 8226 (B lymphocyte cell line, multiple myeloma). Briefly: 48 hr CTG viability assay, RPMI 8226. The assay is classed as cell-based. Conditions: Homo sapiens, RPMI-8226; 48 hr CTG; read-out: RPMI-8226 IC50. The essentials:
as §1

For the compound `Cc1ccc2cc1CNC(=O)[C@H](CCc1ccccc1)NC(=O)[C@@H](NC(=O)N1CC(C)(C)c3cc(N)ccc31)CC(=O)N1CCCC(CCO2)C1` (stereo partly drawn) [Compound 666, 5-amino-3,3-dimethyl-N-((9S,12S)-5^4-methyl-8,11,14-trioxo-9-phenethyl-4-oxa-7,10-diaza-1(3,1)-piperidina-5(1,3)-benzenacyclotetradecaphane-12-yl)indoline-1-carboxamide], the IC50 in assay [1], in assay [2], in assay [3], in assay [4], in assay [5] and in assay [6] was less than 0.1 µM each time.
On to `Cc1ccc2cc1CNC(=O)[C@H](CCc1ccccc1)NC(=O)[C@@H](NC(=O)N1CCCc3cc(N)ccc31)CC(=O)N1CCCC(CCO2)C1` (stereo partly drawn) [Compound 667, 6-amino-N-((9S,12S)-5^4-methyl-8,11,14-trioxo-9-phenethyl-4-oxa-7,10-diaza-1(3,1)-piperidina-5(1,3)-benzenacyclotetradecaphane-12-yl)-3,4-dihydroquinoline-1(2H)-carboxamide], for which the IC50 in assay [1], in assay [2], in assay [3], in assay [4], in assay [5] and in assay [6] was less than 0.1 µM each time.
As for `Cc1ccc2cc1CNC(=O)[C@H](CCc1ccccc1)NC(=O)[C@@H](NC(=O)CCN1CCCC1)CC(=O)N1CCCC(CCO2)C1` (stereo partly drawn) [Compound 668, N-((9S,12S)-5^4-methyl-8,11,14-trioxo-9-phenethyl-4-oxa-7,10-diaza-1(3,1)-piperidina-5(1,3)-benzenacyclotetradecaphane-12-yl)-3-(pyrrolidin-1-yl)propanamide], the IC50 in assay [1], in assay [2], in assay [3], in assay [4], in assay [5] and in assay [6] was less than 0.1 µM in each case.
As to `Cc1ccc2cc1CNC(=O)[C@H](CCc1ccccc1)NC(=O)[C@@H](NC(=O)N1CC(C)(O)C1)CC(=O)N1CCCC(CCO2)C1` (stereo partly drawn) [Compound 669, 3-hydroxy-3-methyl-N-((9S,12S)-5^4-methyl-8,11,14-trioxo-9-phenethyl-4-oxa-7,10-diaza-1(3,1)-piperidina-5(1,3)-benzenacyclotetradecaphane-12-yl)azetidine-1-carboxamide], the IC50 in assay [1], in assay [2], in assay [3], in assay [4], in assay [5] and in assay [6] was less than 0.1 µM throughout.
As for `Cc1ccc2cc1CNC(=O)[C@H](CCc1ccccc1)NC(=O)[C@@H](NC(=O)CCNS(=O)(=O)c1ccc(OCC3CCCCC3)cc1)CC(=O)N1CCCC(CCO2)C1` (stereo partly drawn) [Compound 672, 3-((4-(cyclohexylmethoxy)phenyl)sulfonamido)-N-((9S,12S)-5^4-methyl-8,11,14-trioxo-9-phenethyl-4-oxa-7,10-diaza-1(3,1)-piperidina-5(1,3)-benzenacyclotetradecaphane-12-yl)propanamide], the IC50 in assay [1], in assay [2], in assay [3], in assay [4], in assay [5] and in assay [6] was less than 0.1 µM each time.
For `Cc1ccc2cc1CNC(=O)[C@H](CCc1ccccc1)NC(=O)[C@@H](NC(=O)CCN1CC3CCC1C3)CC(=O)N1CCCC(CCO2)C1` (stereo partly drawn) [Compound 673, 3-(2-azabicyclo[2.2.1]heptan-2-yl)-N-((9S,12S)-5^4-methyl-8,11,14-trioxo-9-phenethyl-4-oxa-7,10-diaza-1(3,1)-piperidina-5(1,3)-benzenacyclotetradecaphane-12-yl)propanamide], the IC50 in assay [1], in assay [2], in assay [3], in assay [4], in assay [5] and in assay [6] was less than 0.1 µM throughout.
In the case of `Cc1ccc2cc1CNC(=O)[C@H](CCc1ccccc1)NC(=O)[C@@H](NC(=O)CCNCC1CCC1)CC(=O)N1CCCC(CCO2)C1` (stereo partly drawn) [Compound 674, 3-((cyclobutylmethyl)amino)-N-((9S,12S)-5^4-methyl-8,11,14-trioxo-9-phenethyl-4-oxa-7,10-diaza-1(3,1)-piperidina-5(1,3)-benzenacyclotetradecaphane-12-yl)propanamide], the IC50 in assay [1], in assay [2], in assay [3], in assay [4], in assay [5] and in assay [6] was less than 0.1 µM in each case.
With `Cc1ccc2cc1CNC(=O)[C@H](CCc1ccccc1)NC(=O)[C@@H](NC(=O)CCNC1CCCC1)CC(=O)N1CCCC(CCO2)C1` (stereo partly drawn) [Compound 675, 3-(cyclopentylamino)-N-((9S,12S)-5^4-methyl-8,11,14-trioxo-9-phenethyl-4-oxa-7,10-diaza-1(3,1)-piperidina-5(1,3)-benzenacyclotetradecaphane-12-yl)propanamide], the IC50 in assay [1], in assay [2], in assay [3], in assay [4], in assay [5] and in assay [6] was less than 0.1 µM throughout.
Turning to `Cc1ccc2cc1CNC(=O)[C@H](CCc1ccccc1)NC(=O)[C@@H](NC(=O)N1CCC(C)(O)CC1)CC(=O)N1CCCC(CCO2)C1` (stereo partly drawn) [Compound 676, 4-hydroxy-4-methyl-N-((9S,12S)-5^4-methyl-8,11,14-trioxo-9-phenethyl-4-oxa-7,10-diaza-1(3,1)-piperidina-5(1,3)-benzenacyclotetradecaphane-12-yl)piperidine-1-carboxamide], the IC50 in assay [1], in assay [2], in assay [3], in assay [4], in assay [5] and in assay [6] was less than 0.1 µM throughout.
As for `Cc1ccc2cc1CNC(=O)[C@H](CCc1ccccc1)NC(=O)[C@@H](NC(=O)CCNCC1CCCC1)CC(=O)N1CCCC(CCO2)C1` (stereo partly drawn) [Compound 677, 3-((cyclopentylmethyl)amino)-N-((9S,12S)-5^4-methyl-8,11,14-trioxo-9-phenethyl-4-oxa-7,10-diaza-1(3,1)-piperidina-5(1,3)-benzenacyclotetradecaphane-12-yl)propanamide], the IC50 in assay [1] was less than 0.1 µM; in assay [2], less than 0.1 µM; in assay [3], 0.1 to 0.5 µM; in assay [4], less than 0.1 µM; in assay [5], less than 0.1 µM; in assay [6], less than 0.1 µM.
For the compound `Cc1ccc2cc1CNC(=O)C(CCc1ccncc1)NC(=O)[C@@H](NC(=O)Cc1ccc(N)cc1C)CC(=O)N1CCCC(CCO2)C1` (stereo partly drawn) [Compound 678, 2-(4-amino-2-methylphenyl)-N-((12S)-5^4-methyl-8,11,14-trioxo-9-(2-(pyridin-4-yl)ethyl)-4-oxa-7,10-diaza-1(3,1)-piperidina-5(1,3)-benzenacyclotetradecaphane-12-yl)acetamide], the IC50 in assay [1], in assay [2], in assay [3], in assay [4], in assay [5] and in assay [6] was less than 0.1 µM each time.
Consider `Cc1ccc2cc1CNC(=O)[C@H](CCc1ccccc1)NC(=O)[C@@H](NC(=O)CCNCCC1CC1)CC(=O)N1CCCC(CCO2)C1` (stereo partly drawn) [Compound 679, 3-((2-cyclopropylethyl)amino)-N-((9S,12S)-5^4-methyl-8,11,14-trioxo-9-phenethyl-4-oxa-7,10-diaza-1(3,1)-piperidina-5(1,3)-benzenacyclotetradecaphane-12-yl)propanamide], for which the IC50 in assay [1], in assay [2], in assay [3], in assay [4], in assay [5] and in assay [6] was less than 0.1 µM each time.
Consider `Cc1ccc2cc1CNC(=O)[C@H](CCc1ccccc1)NC(=O)[C@@H](NC(=O)CCNC1CCC1)CC(=O)N1CCCC(CCO2)C1` (stereo partly drawn) [Compound 680, 3-(cyclobutylamino)-N-((9S,12S)-5^4-methyl-8,11,14-trioxo-9-phenethyl-4-oxa-7,10-diaza-1(3,1)-piperidina-5(1,3)-benzenacyclotetradecaphane-12-yl)propanamide], for which the IC50 in assay [1], in assay [2], in assay [3], in assay [4], in assay [5] and in assay [6] was less than 0.1 µM throughout.
